Laboratory results taken from patent US20220387460A1, “LIPOSOME COMPOSITIONS AND METHODS OF TREATMENT TARGETED TO TUMOR ENDOTHELIUM” (Washington University, priority 2019, published 2022).
Like-named read-outs stand apart in the source and are kept apart here.

Assays:
[1] = in vivo; cited from earlier work
relapsed MM patients = conditions: combination treatment of AMD3100 and BTZ; cited from earlier work
HUVECs [2] = assay: Immunoblotting of adhesion signaling proteins (pSRC, pFAK) in HUVECs co-cultured with MM cells; assay type: cell-based, human; conditions: 25 μM, 6 hours (FIG. 4B)
Description: (§1) HUVECs and MM1.S cells were co-cultured overnight and treated with vehicle (control), free Y27632 (25 μM), free BTZ (5 nM), empty liposomes, liposomal Y27632 (25 μM), liposomal BTZ (5 nM) for 6 hours. MM cells were then separated from the HUVECs and both cell types were collected. The proteins were then extracted and subjected to immunoblotting for pSRC, pFAK, p21, pRB, cPARP, cCasp3, cCasp9, pAKT, pS6R, pERK, and α-Tubulin.
(§2) The immunoblotting protocol was performed as previously described below. Briefly, cells were lysed with 1× lysis buffer (Cell Signaling, #9803), the protein concentration was determined by Bradford assay (BioRad, Hercules, Calif.), and 50 μg of protein was loaded per lane. Electrophoresis was performed using NuPAGE 4%-12% Bis-Tris gels (Novex, Life Technologies, Grand Island, N.Y.) and transferred to a nitrocellulose membrane using iBlot (Invitrogen). Membranes were blocked with 5% non-fat milk in Tris-Buffered Saline/Tween20 (TBST) buffer and incubated with primary antibodies overnight at 4° C. The membranes were then washed with TBST for 30 minutes, incubated for 1 hour at room temperature with horseradish peroxidase (HRP)-conjugated secondary antibody, washed, and developed using Novex ECL Plus chemiluminescent Kit. Images were taken using a ChemiDoc XRS imaging system (Bio-Rad).

MM.1S-GFP-Luc cells = assay: MM tumor progression (BLI) and survival in MM.1S-GFP-Luc-bearing mice; assay type: in vivo; conditions: weekly intravenous, BTZ 1 mg/kg; for tumor progression / tumor growth (BLI): Y27632 2.5 mg/kg (FIGS. 6A-C, 8A-D); for survival of the mice: Y27632 2.5 mg/kg (FIGS. 6D-F, 9A-D)
Description: Mice were randomized into 12 groups of 7 mice each, which received weekly intravenous injections of: (i) saline, (ii) Y27632 as a free drug (2.5 mg/kg), (iii) BTZ as a free drug (1 mg/kg), (iv) combination of free BTZ and free Y27632, (v) empty non-targeted liposomes, (vi) non-targeted liposomal Y27632 (2.5 mg/kg-equivalent), (vii) non-targeted liposomal BTZ (1 mg/kg), (viii) non-targeted liposomal combination of BTZ and Y27632 in the same liposome (2.5 mg/kg and 1 mg/kg, respectively), (ix) empty PSGL-1-targeted liposomes, (x) PSGL-1-targeted liposomal Y27632 (2.5 mg/kg), (xi) PSGL-1-targeted liposomal BTZ (1 mg/kg), (xii) PSGL-1-targeted liposomal combination of BTZ and Y27632 in the same liposome (2.5 mg/kg and 1 mg/kg, respectively). Tumor progression was assessed weekly by BLI, weight was recorded twice a week, and survival and general health of mice were recorded daily. The in vivo data were expressed as means±standard deviation.

[3] = Drug entrapment (encapsulation) efficiency by ultracentrifugation and HPLC; assay type: physicochemical; conditions: drug loaded in liposomes; BTZ in lipid bilayer, Y27632 in hydrophilic core
Description: To evaluate loading efficiency, the liposomes were centrifuged at 38,000 rpm at 4° C. for 1 hour using a Beckman Optima™ XPN ultracentrifuge equipped with an SW 50.1 […] rotor (Beckman Coulter Inc., Fullerton, Calif., USA). The amount of BTZ and Y27632 in the supernatant was evaluated by HPLC as described in Example 9. The entrapment efficiency (EE) was calculated according to the following equation: EE=DT−DU/DT×100 where DT represents the total amount of drug added to the formulation during the preparation, and DU represents the amount of unincorporated drug found in the supernatant.

MM.1S cells [4] = assay: Trans-endothelial migration of MM cells in Boyden chamber with SDF-1; assay type: cell-based; conditions: 25 μM pre-treatment 3 hours, 30 nM SDF-1 (FIG. 4C)
Description: Trans-endothelial migration was by incubating HUVECs (5×10^3 cells) overnight in the upper chamber of a Boyden chamber (Corning), followed by an adhesion assay. MM.1S cells were pre-treated with (or without) free Y27632 (25 μM) or liposomal Y27632 (25 μM equivalent) for 3 hours. The pre-treated MM.1 S cells were then placed in the upper migration chamber in the presence or absence of 30 nM SDF-1 in the lower chamber. After 3 hours of incubation, MM.1 S cells that migrated to the lower chambers were counted by flow cytometry. The in vitro data were expressed as means±standard deviation.

MM1.S cells = assay: Immunoblotting of adhesion signaling proteins (pSRC, pFAK) in MM cells co-cultured with HUVECs; assay type: cell-based; conditions: 25 μM, 6 hours (FIG. 4A)
Description: as §1, §2

HUVECs [5] = assay: Viability of HUVECs in co-culture with MM cells (flow cytometry); assay type: cell-based, human; conditions: 24 hours, 0-50 nM, co-culture with MM.1S (FIG. 5C)
Description: (§3) DiD-labeled HUVECs and DiO-labeled MM.1S cells were co-cultured overnight and treated with free BTZ (0-50 nM) or liposomal BTZ (0-50 nM-equivalent) for 24 hours, and the survival of the MMs and HUVECs was analyzed via flow cytometry. MM cells were gated as DiO+ cells and HUVECs were gated as DiD+ cells, and each cell population was counted and normalized against counting beads (Invitrogen), and survival was calculated as a percentage of vehicle-treated controls. The in vitro data were expressed as means±standard deviation.

[6] = cited from earlier work
MM.1S cells [7] = assay: Viability of MM cells in co-culture with HUVECs (flow cytometry); assay type: cell-based; conditions: Homo sapiens; 24 hours, 0-50 nM, co-culture with HUVECs (FIG. 5B); read-out: IC50, killing of MM cells
Description: as §3

SMILES: c1cc(CN2CCCNCCNCCCNCC2)ccc1CN1CCCNCCNCCCNCC1 [AMD3100]
- pharmacokinetic (PK) half-life [1]: 3 to 5 h
- overall response rate (relapsed MM patients): 510%

SMILES: C[C@@H](N)[C@H]1CC[C@H](C(=O)Nc2ccncc2)CC1 [Y27632]
- adhesion signaling proteins (pSRC and pFAK) in HUVECs (HUVECs [2]): decreased adhesion signaling
- tumor progression / tumor growth (BLI) (MM.1S-GFP-Luc cells): did not affect the tumor growth
- survival of the mice (MM.1S-GFP-Luc cells): did not extend the survival
- maximal encapsulation efficiency (EE) [3]: 55%
- SDF-induced trans-endothelial migration of MM cells (MM.1S cells [4]): reversed
- adhesion signaling proteins (pSRC and pFAK) in MM cells (MM1.S cells): decreased adhesion signaling

SMILES: CC(C)C[C@H](NC(=O)[C@H](Cc1ccccc1)NC(=O)c1cnccn1)B(O)O [BTZ, bortezomib]
- tumor progression / tumor growth (BLI) (MM.1S-GFP-Luc cells): delayed significantly the tumor growth
- survival of the mice (MM.1S-GFP-Luc cells): significantly prolonged the survival
- maximal encapsulation efficiency (EE) [3]: 77%
- pharmacokinetic (PK) half-life [1]: 40 h
- survival of HUVECs (HUVECs [5]): No effect
- maximum tolerated dose ([6]; intravenous bolus on days 1, 4, 8, and 11 of a 3-week cycle (Vorhees 2003)): about 1.56 mg/m^2
- maximum tolerated dose ([6]; intravenously once or twice weekly, patients with solid tumors (Orlowski 2003)): 1.3 mg/m^2
- IC50 (MM.1S cells [7]): ~10 nM
